What was measured:
[1] = test system: VEGF; assay: Real-Time quantitative PCR of VEGF mRNA in HT1080 cells; assay type: cell-based, human; conditions: 24 h
Experimental: (§1) To evaluate the effect of heparanase inhibitors on the tumor transcription of genes encoding for proangiogenic factors, such as FGF1/2, VEGF, MMP-9, HSPE-1, the relative mRNA levels were analyzed by quantitative Real-Time Quantitative PCR. To perform the assay, HT1080 (human fibrosarcoma) cells were cultured in complete medium containing 10%FCS (fetal calf serum). Cells were plated in 24-well plates and treated at fixed concentration (i.e., highest non-toxic concentration) of test compounds. After 24 h, cells were detached, collected and total RNA extracted by RNeasy Mini Kit (QIAGEN). Following reverse transcription step, FGF1/2, VEGF, MMP-9, HSPE-1 mRNA levels, were quantified by qPCR using the advanced Universal SYBR Green Supermix (Bio Rad) and ABI PRISM 7900HT Thermal Cycler System (Perkin Elmer), according to the manufacturer's instructions. Appropriate no-RT and non-template controls were included in each 96-well PCR reaction, and dissociation analysis was performed at the end of each run to confirm the specificity of the reaction. Relative levels of RNA were calculated using the ddCt method. Standard curve and sample data were run in duplicate.
(§2) In the Table 5 a mean value is reported.

[2] = molecular target: T1, heparanase (Homo sapiens, UniProt Q9Y251); assay: AGA*IA assay: colorimetric fondaparinux cleavage assay for heparanase inhibition (WST-1); assay type: biochemical; conditions: 2.5 nM heparanase, 100 µM fondaparinux, pH 5.0, 3 h at 37°C; class symbols
T1 sequence (Q9Y251 158-543 limits assumed): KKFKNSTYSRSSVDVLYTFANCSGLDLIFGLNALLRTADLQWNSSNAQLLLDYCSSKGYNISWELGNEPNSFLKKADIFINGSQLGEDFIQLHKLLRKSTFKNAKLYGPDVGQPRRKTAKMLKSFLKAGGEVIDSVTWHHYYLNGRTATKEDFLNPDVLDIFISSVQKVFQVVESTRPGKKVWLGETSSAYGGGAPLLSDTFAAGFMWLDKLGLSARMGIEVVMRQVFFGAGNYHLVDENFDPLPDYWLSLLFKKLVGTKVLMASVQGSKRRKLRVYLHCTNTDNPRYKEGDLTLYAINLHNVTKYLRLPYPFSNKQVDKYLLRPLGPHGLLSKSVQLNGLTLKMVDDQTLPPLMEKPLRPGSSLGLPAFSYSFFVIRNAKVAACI
T1 sequence (Q9Y251 36-109 limits assumed): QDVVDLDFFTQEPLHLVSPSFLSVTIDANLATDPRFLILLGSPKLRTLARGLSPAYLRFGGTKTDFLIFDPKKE
Experimental: All compounds were tested in a simple, accurate and robust microplate assay based on the cleavage of the synthetic heparin fragment, the pentasaccharide Fondaparinux (AGA*IA). This assay was originally developed by Hammond and coworkers [Hammond E, Li CP, Ferro V. Development of a colorimetric assay for heparanase activity suitable for kinetic analysis and inhibitor screening. Anal. Biochem. 396(1), 112-116 (2010)], where Fondaparinux corresponds to the methyl glycoside of the antithrombin III (ATIII)-activating pentasaccharide sequence of heparin. Fondaparinux is cleaved by heparanase to generate a reducing disaccharide, which can be quantitatively measured via a colorimetric or a fluorescence assay, the last by the fluorescent sensor polymer-H [Schiemann S, Lühn S, Alban S. Development of both colorimetric and fluorescence heparinase activity assays using fondaparinux as substrate. Anal. Biochem. 427(1), 82-89 (2012)].
The assay measures the appearance of the disaccharide product of heparanase-catalyzed fondaparinux cleavage colorimetrically using the tetrazolium salt WST-1. Assay was essentially performed as described with minor modifications. Briefly, NUNC ELISA 96-well plates were pre-treated with a solution of 4% BSA (bovin serum albumin) in phosphate-buffered saline containing 0.05% Tween 20 (PBST), for 2 h at 37°C, then washed three times with PBST, dried by tapping on paper towel and stored at -20°C. Before use, once again, the plates were washed with PBST.
Assay was carried out with 100 µl/well of assay solution containing 40 mM sodium acetate buffer (pH 5.0), 100 µM fondaparinux, 2.5 nM heparanase and serial dilutions of test compounds (tested in triplicate). Plates were sealed with adhesive tape and incubated, in the dark, for 3 h at 37°C, followed by development with 1.69 mM of the tetrazolium salt WST-1 solution in 0.1 M NaOH, for 1 h at 60°C. Then, the absorbance at 560 nm was measured through a microplate reader (Victor 3, Perkin Elmer).
Finally, the measurements were corrected by subtracting both the reagent background and the inner absorbance value of test compound.

[3] = test system: MMP-9; assay: Real-Time quantitative PCR of MMP-9 mRNA in HT1080 cells; assay type: cell-based, human; conditions: 24 h
Experimental: as §1, §2

| SMILES | Gene Expression (% mRNA vs. control) VEGF ([1]; 2.5 uM) | IC50 [2] | Gene Expression (% mRNA vs. control) MMP-9 ([3]; 2.5 uM) | Gene Expression (% mRNA vs. control) VEGF ([1]; 10.0 uM) | Gene Expression (% mRNA vs. control) MMP-9 ([3]; 10.0 uM) |
| --- | --- | --- | --- | --- | --- |
| O=C(O)Cc1ccc2oc(-c3ccc(NC(=O)Nc4ccc(-c5nc6cc(CC(=O)O)ccc6o5)cc4F)c(F)c3)nc2c1 [Compound 20, 2,2'-(((Carbonylbis(azanediyl))bis(3-fluoro-4,1-phenylene))bis(benzo[d]oxazole-2,5-diyl))diacetic acid] | ∼ 72% | 50 to 490 nM | ∼ 70% | – | – |
| O=C(O)CNC(=O)Cc1ccc2oc(-c3ccc(NC(=O)Nc4ccc(-c5nc6cc(CC(=O)NCC(=O)O)ccc6o5)cc4F)c(F)c3)nc2c1 [Compound 25, 2,2'-((2,2'-(((Carbonylbis(azanediyl))bis(3-fluoro-4,1-phenylene))bis(benzo[d]oxazole-2,5-diyl))bis(acetyl))bis(azanediyl))diacetic acid] | – | 50 to 490 nM | – | ∼ 63% | ∼ 65% |
